Source: ChEMBL document CHEMBL1201862, “PubChem BioAssay data set” (2004)
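Step 1: Grow cells in 96-well plates. Step 2: Expose to compound for 48 hours at 5 concentrations. Step 3: Interpolate endpoints linearly; if unreached, use highest concentration. GI50: concentration for 50% inhibition of growth.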 Active and inactive are the calls of the source. Rule as the data show it: active = GI50 up to about 1.1 µM and inactive = higher.

Columns and labels:
Experiment in all cases: DTP human tumour cell line panel, 48 h
ACHN = system: ACHN
MCF7 = system: MCF7
786-0 = system: 786-0
TK-10 = system: TK-10
RPMI-8226 = system: RPMI-8226
MDA-N = system: MDA-N
SNB-19 = system: SNB-19
SN12C = system: SN12C
COLO 205 = system: COLO 205
UACC-62 = system: UACC-62
SK-MEL-2 = system: SK-MEL-2
A549 = system: A549
K562 = system: K562
NCI-H460 = system: NCI-H460
T47D = system: T47D
NCI-H522 = system: NCI-H522
HT-29 = system: HT-29
A498 = system: A498
NCI-H23 = system: NCI-H23
UO-31 = system: UO-31
SW-620 = system: SW-620
CAKI-1 = system: CAKI-1
EKVX = system: EKVX
U-251 = system: U-251
OVCAR-3 = system: OVCAR-3
SK-MEL-5 = system: SK-MEL-5
SNB-75 = system: SNB-75
BT-549 = system: BT-549
SF-539 = system: SF-539
HOP-62 = system: HOP-62
UACC-257 = system: UACC-257
OVCAR-5 = system: OVCAR-5
HCC 2998 = system: HCC 2998
M14 = system: M14
SF-268 = system: SF-268
NCI/ADR-RES = system: NCI/ADR-RES
OVCAR-8 = system: OVCAR-8
HCT-15 = system: HCT-15
HOP-92 = system: HOP-92
Hs-578T = system: Hs-578T
KM12 = system: KM12
OVCAR-4 = system: OVCAR-4
SF-295 = system: SF-295
MDA-MB-435 = system: MDA-MB-435
CCRF-CEM = system: CCRF-CEM
LOX IMVI = system: LOX IMVI
HCT-116 = system: HCT-116
DU-145 = system: DU-145
IGROV-1 = system: IGROV-1
SK-MEL-28 = system: SK-MEL-28
HL-60 = system: HL-60
MOLT-4 = system: MOLT-4
PC-3 = system: PC-3
SK-OV-3 = system: SK-OV-3
NCI-H226 = system: NCI-H226
MDA-MB-231 = system: MDA-MB-231
SR = system: SR

`C=CC1=C(C)c2cc3[nH]c(c4c5nc(cc6[nH]c(cc1n2)c(C)c6CC)C=C5C(=O)C4C(=O)OC)C(CCC(=O)OC/C=C(\C)CCCC(C)CCCC(C)CCCC(C)C)C3C.C=CC1=C(C)c2cc3[nH]c(c4c5nc(cc6[nH]c(cc1n2)c(C=O)c6CC)C=C5C(=O)C4C(=O)OC)C(CCC(=O)OC/C=C(\C)CCCC(C)CCCC(C)CCCC(C)C)C3C` (configuration not stated) was tested, and the GI50 (ACHN) was > 100 µM (inactive), the GI50 (MCF7) was > 100 µM (inactive) and the GI50 (786-0) was > 100 µM (inactive). The GI50 (TK-10) was > 100 µM (inactive), the GI50 (RPMI-8226) was > 100 µM (inactive) and the GI50 (MDA-N) was > 100 µM (inactive). The GI50 (SNB-19) was > 100 µM (inactive), the GI50 (SN12C) was > 100 µM (inactive) and the GI50 (COLO 205) was 43.9 µM (inactive). The GI50 (UACC-62) was > 100 µM (inactive), the GI50 (SK-MEL-2) was > 100 µM (inactive) and the GI50 (A549) was > 100 µM (inactive). The GI50 (K562) was > 100 µM (inactive), the GI50 (NCI-H460) was > 100 µM (inactive) and the GI50 (T47D) was > 100 µM (inactive). The GI50 (NCI-H522) was 22.6 µM (inactive), the GI50 (HT-29) was > 100 µM (inactive) and the GI50 (A498) was > 100 µM (inactive). The GI50 (NCI-H23) was > 100 µM (inactive), the GI50 (UO-31) was > 100 µM (inactive) and the GI50 (SW-620) was > 100 µM (inactive). The GI50 (CAKI-1) was > 100 µM (inactive), the GI50 (EKVX) was 50.6 µM (inactive) and the GI50 (U-251) was > 100 µM (inactive). For the same molecule, the GI50 (OVCAR-3) was > 100 µM (inactive), the GI50 (SK-MEL-5) was > 100 µM (inactive) and the GI50 (SNB-75) was > 100 µM (inactive). For the same molecule, the GI50 (BT-549) was 76.4 µM (inactive), the GI50 (SF-539) was > 100 µM (inactive) and the GI50 (HOP-62) was > 100 µM (inactive). The GI50 (UACC-257) was > 100 µM (inactive), the GI50 (OVCAR-5) was > 100 µM (inactive) and the GI50 (HCC 2998) was > 100 µM (inactive). The GI50 (M14) was > 100 µM (inactive), the GI50 (SF-268) was > 100 µM (inactive) and the GI50 (NCI/ADR-RES) was > 100 µM (inactive). The GI50 (OVCAR-8) was 43 µM (inactive), the GI50 (HCT-15) was over 100 µM and the GI50 (HOP-92) was > 100 µM (inactive). The GI50 (Hs-578T) was > 100 µM (inactive), the GI50 (KM12) was > 100 µM (inactive) and the GI50 (OVCAR-4) was > 100 µM (inactive). The GI50 (SF-295) was > 100 µM (inactive), the GI50 (MDA-MB-435) was > 100 µM (inactive) and the GI50 (CCRF-CEM) was 10 µM (inactive). The GI50 (LOX IMVI) was > 100 µM (inactive), the GI50 (HCT-116) was > 100 µM (inactive) and the GI50 (DU-145) was > 100 µM (inactive). The GI50 (IGROV-1) was 38.9 µM (inactive), the GI50 (SK-MEL-28) was > 100 µM (inactive) and the GI50 (HL-60) was 10 µM (inactive). For the same molecule, the GI50 (MOLT-4) was > 100 µM (inactive), the GI50 (PC-3) was > 100 µM (inactive) and the GI50 (SK-OV-3) was > 100 µM (inactive). The GI50 (NCI-H226) was > 100 µM (inactive), the GI50 (MDA-MB-231) was > 100 µM (inactive) and the GI50 (SR) was > 100 µM (inactive).
